# Values of other authors in patent US6491946B1, “Pharmaceutical levothyroxine preparation” (Merck Patent Gesellschaft, priority 1998, dated 2002).
# Read-outs that look alike come from different tables or passages of the source.
structure (smiles),measurement,setting,value
"N[C@@H](Cc1cc(I)c(Oc2cc(I)c(O)c(I)c2)c(I)c1)C(=O)O [Levothyroxine sodium, levothyroxine sodium]",Solubility,in ethanol,soluble with great difficulty
same,Solubility,in water,soluble with great difficulty
